Entries after “also recorded” stand apart in the source; their conditions may differ.
Key:
[1] = molecular target: T1, HLA-DR1301 (Homo sapiens, UniProt P01903+P01911, A100E/A169T/K41T/L162R/M171V/P40S/Q125H/Q178H/Q39Y/Q99D/R42S/S66N/T262R/W38E/Y61H); experiment: Competitive peptide-binding assay with biotinylated MBP peptide; conditions: analog at 6.25 μM to 400 μM, OD at 450 nm
T1 construct: expressed in transfected cells; host or cells: DAP.3 murine fibroblasts (gift of C. Hurley and R. Rosen-Bronson)
Experimental: 1.5×10^6 HLA-DR-transfected Dap.3 cells were washed in Hanks' Balanced Salt Solution, fixed with 1% paraformaldehyde, washed with RPMI medium and PBS, and resuspended in binding buffer. Biotinylated MBP peptide was added at 200 μg/ml (for MBP 152-165) or 1 μg/ml (for MBP 83-97). BSA was added at 1%. The blocking compound (analogue 6) was added at multiple concentrations ranging from 6.25 μM to 400 μM and incubated overnight in a shaking water bath at 37° C. The samples were then washed and lysed with 100 μl lysis buffer containing 1% nonidet-P40 on ice for 40 min. After centrifugation, the supernatant containing the cell membrane fragments was […] to a 96-well plate pre-coated with the L243 monoclonal antibody that binds to all HLA-DR molecules. The lysis buffer was neutralized with 100 μl n-octyl-β-D-glucopyranoside overnight at 4° C. The samples were then washed and incubated with streptavidin-peroxidase for 1 hour at room temperature. […] OD was measured by an ELISA reader at 450 nm. Competition of the compound for the MBP peptide was calculated according to the following formula: [formula]
This assay evaluates the binding of biotinylated MBP peptide to HLA-DR1301 in the presence of different concentrations of the analog (analog 6 of lead compound). The amounts of MBP peptide bound (label) to the HLA molecule are then quantitated based on the amount of biotin detected.

[2] = molecular target: T1, HLA-DR1301; experiment: IL-2 secretion functional blocking assay, DR1301-restricted TCR transfectants with MBP 152-165; format: cell-based; conditions: for specificity for DR-1301 as compared with DR-1501, by inhibitory effect on IL-2 secretion: DR1301- versus DR1501-restricted TCR transfectants; for inhibition of IL-2 secretion / blocking of antigen presentation by DR-1301: DR1301 and TCR transfectants, MBP peptide, IL-2 in supernatant by ELISA
Source text: The murine T-cell hybridoma cell line BW58α-β- (a gift of […] and W. Born) was used for transfection of human TCRα and β cDNA isolated from patients with multiple sclerosis (Hastings, 1996). The parental DAP.3 murine fibroblast cell line was used for transfection of DR(α,β1*1301) or DR((α,β*1501) as previously described (a gift of C. Hurley and R. Rosen-Bronson)) ([Hurley, 1995), [Posch, 1995), [Rosen-Bronson, 1991). All cells lines were maintained in DMEM supplemented with 10% fetal calf serum, 50 U/ml penicillin G, 50 μg/ml streptomycin, 1 mM sodium pyruvate, 2 mM glutamine, and 10 mM HEPES buffer (all Gibco/BRL, Gaithersburg, Md.). TCR- and HLA-transfectants were expanded using 1 mg/ml G418 (Gibco/BRL), or 1 mg/ml G418 and 1 mg/ml hygromycin (Calbiochem, San Diego, Calif.), respectively. Cells were washed and resuspended in DMEM complete medium without antibodies. 10^5 cells of the TCR-transfected or untransfected (control) BW58α-β- cells and an equal number of DR-transfected or untransfected (control) Dap.3 cells were incubated with MBP 152-165, or MBP 83-97 and various concentrations of compound, using an U-bottom 96 well plate (Costar). Cell culture supernatants were harvested after […] and stored at -70° C. until use. IL-2 cytokine concentrations (pg/ml) of supernatants were measured by ELISA (Genzyme, Cambridge, Mass.) according to the manufacturer's instructions. The activity of compounds identified by MCDOCK in functional assays that measure inhibition of IL-2 secretion by DR1301 and DR1501-restricted TCR transfectants using compound #105 and several other compounds was evaluated. The results obtained with compound #105 are contained in FIG. 3. In the figure t1 and t2 represent dose-response curves generated in two different experiments. TCR and DR transfectants were incubated for 36 hours with or without compound and the appropriate MBP peptide. IL-2 concentration of the supernatants was then analyzed by ELISA.

[3] = molecular target: T2, HLA-DR1501 (Homo sapiens, UniProt P01903+P01911); experiment: IL-2 secretion functional blocking assay, DR1501-restricted TCR transfectants with MBP 83-97; format: cell-based; conditions: DR1501 and TCR transfectants, MBP peptide, IL-2 in supernatant by ELISA
T2 construct: expressed in transfected cells; host or cells: DAP.3 murine fibroblasts (gift of C. Hurley and R. Rosen-Bronson)
Source text: The murine T-cell hybridoma cell line BW58α-β- (a gift of B. Malissen and W. Born) was used for transfection of human TCRα and β cDNA isolated from patients with multiple sclerosis (Hastings, 1996). The parental DAP.3 murine fibroblast cell line was used for transfection of DR(α,β1*1301) or DR((α,β*1501) as previously described (a gift of C. Hurley and R. Rosen-Bronson)) ([Hurley, 1995), [Posch, 1995), [Rosen-Bronson, 1991). All cells lines were maintained in DMEM supplemented with 10% fetal calf serum, 50 U/ml penicillin G, 50 μg/ml streptomycin, 1 mM sodium pyruvate, 2 mM glutamine, and 10 mM HEPES buffer (all Gibco/BRL, Gaithersburg, Md.). TCR- and HLA-transfectants were expanded using 1 mg/ml G418 (Gibco/BRL), or 1 mg/ml G418 and 1 mg/ml hygromycin (Calbiochem, San Diego, Calif.), respectively.
Cells were washed and resuspended in DMEM complete medium without antibodies. […] IL-2 cytokine concentrations (pg/ml) of supernatants were measured by ELISA (Genzyme, Cambridge, Mass.) according to the manufacturer's instructions.
The activity of compounds identified by MCDOCK in functional assays that measure inhibition of IL-2 secretion by DR1301 and DR1501-restricted TCR transfectants using compound #105 and several other compounds was evaluated. […] IL-2 concentration of the supernatants was then analyzed by ELISA.

| Structure (SMILES) | competition with biotinylated MBP peptide for binding to DR1301 [1] | specificity for DR-1301 as compared with DR-1501, by inhibitory effect on IL-2 secretion [2] | specificity for DR-1301 as compared with DR-1501, by inhibitory effect on IL-2 secretion ([2]; listed as #6) | inhibition of IL-2 secretion / blocking of antigen presentation by DR-1501 [3] | inhibition of IL-2 secretion / blocking of antigen presentation by DR-1301 [2] | inhibition of IL-2 secretion / blocking of antigen presentation by DR-1301 ([2]; listed as lead compound #105) | reversal of inhibition of IL-2 production by increasing MBP 152-165 peptide concentration ([2]; MBP 0 to 1200 micrograms/ml, DR1301-restricted TCR transfectants) |
| --- | --- | --- | --- | --- | --- | --- | --- |
| O=C(CNc1ccc(Cl)cc1Cl)NC1C=Cc2ccc(S(=O)(=O)Nc3ccc(Cl)cc3Cl)cc2C1=O (stereo not drawn) [analog #6, 2-[(2,4-dichlorophenyl)amino]-N-(7-{[(2,4-dichlorophenyl)amino]sulfonyl}-1-oxo(2-2-hydronaphthyl))acetamide] | specific binding of the compound to HLA-DR1301; also recorded: specifically competes with MBP peptide for binding to purified DR1301 molecules | greater degree of specificity for DR-1301 as compared with DR-1501 | greater specificity for DR1301 than #105 |  |  |  |  |
| CC(=O)Nc1ccc(NCC(=O)Nn2cnc3ccc(S(=O)(=O)Nc4ccc(NC(C)=O)cc4)cc3c2=O)cc1 [compound #105, 2-{[4-(acetylamino)phenyl]amino}-N-[6-({[4-(acetylamino)phenyl]amino}sulfonyl)-4-oxo(3-hydroquinazolin-3-yl)]acetamide] |  | most effective in discriminating |  | weaker inhibition | strong inhibition | significant effect | best dose-response curves |
| COc1ccc(NS(=O)(=O)c2ccc3ncn(NS(=O)(=O)c4ccc(I)cc4)c(=O)c3c2)cc1 [analog #14, 3-{[(4-iodophenyl)sulfonyl]amino}-6-{[(4-methoxyphenyl)amino]sulfonyl}-3-hydroquinazolin-4-one] |  |  |  |  | inactive |  |  |
